The structures appear in SMILES notation.

The target of one experiment is KRAS (G12V)::SOS1 (Homo sapiens (Human), UniProt P01116, C118S/G12V). Put plainly: KRAS::SOS1 AlphaScreen binding assay, KRAS G12V. The procedure, abridged: (§1)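 Compounds (up to 100 μM, eleven fivefold dilutions in duplicate) were incubated 30 min with KRAS 1-169 (10 nM, or 7.5 nM for G12C), GST-SOS1 564-1049 (5 nM for G12D/G12C, 10 nM for others) and 10 μM GDP in PBS buffer with BSA and Tween. Donor/acceptor beads were then added for 60 min at room temperature, and IC50 came from a 4-parameter fit of the AlphaScreen signal.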
Sequence of KRAS (G12V)::SOS1 (P01116 other isoform, or with tags, fused parts or gaps G12V/C118S): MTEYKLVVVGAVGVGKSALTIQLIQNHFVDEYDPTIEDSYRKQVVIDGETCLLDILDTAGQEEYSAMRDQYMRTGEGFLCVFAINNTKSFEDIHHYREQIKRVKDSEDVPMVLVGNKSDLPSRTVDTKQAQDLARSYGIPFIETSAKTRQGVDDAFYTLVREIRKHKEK

The next experiment deals with KRAS (G13D)::SOS1 (Homo sapiens (Human), UniProt P01116, C118S/G13D). Put plainly: KRAS::SOS1 AlphaScreen binding assay, KRAS G13D. From the text: This assay can be used to examine the potency with which compounds according to the invention binding to (mutated) KRAS inhibit the protein-protein interaction between SOS1 and (mutated) KRAS e.g., KRAS WT, KRAS G12C, KRAS G12D, KRAS G12V, KRAS G13D. […] Low IC50 values in this assay setting are indicative of strong inhibition of protein-protein interaction between SOS1 and KRAS:
These assays measure the inhibitory effect of compounds on KRAS mutant protein-protein interactions using the Alpha Screen technology by Perkin Elmer.
The following (mutant) enzyme forms of KRAS and interacting proteins are used in these assays at the given concentrations: • KRAS (G12D) 1-169, N-terminal 6His-tag, C-terminal avi-tag (Xtal BioStructures, Inc.); final assay concentration 10 nM and SOS1 564-1049, N-terminal 229 GST-tag, TEV cleavage site (Viva Biotech Ltd); final assay concentration 5 nM; • KRAS (G12C) 1-169, N-terminal 6His-tag for purification, cleaved off, C-terminal avi-tag, biotinylated, mutations: C51S, C80L, C118S (in house); final assay concentration 7.5 nM and SOS1 564-1049, N-terminal 229 GST-tag, TEV cleavage site (Viva Biotech Ltd); final assay concentration 5 nM; • KRAS (G12V) 1-169, N-terminal 6His-tag for purification, cleaved off, C-terminal avi-tag, biotinylated, TEV cleavage site, mutation: C118S, GDP loaded (in house); final assay concentration 10 nM and SOS1 564-1049, N-terminal 229 GST-tag, TEV cleavage site (Viva Biotech Ltd); final assay concentration 10 nM; • KRAS (G13D) 1-169, N-terminal 6His-tag for purification, cleaved off, C-terminal avi-tag, biotinylated, TEV cleavage site, mutation: C118S, GDP loaded (in house); final assay concentration 10 nM and SOS1 564-1049, N-terminal 229 GST-tag, TEV cleavage site (Viva Biotech Ltd); final assay concentration 10 nM; • KRAS (WT) 1-169, N-terminal 6His-tag for purification, cleaved off, C-terminal avi-tag, biotinylated, TEV cleavage site, mutation: C118S, GDP loaded (in house); final assay concentration 10 nM and SOS1 564-1049, N-terminal 229 GST-tag, TEV cleavage site (Viva Biotech Ltd); final assay concentration 10 nM.
Test compounds dissolved in DMSO are dispensed onto assay plates (Proxiplate 384 PLUS, white, PerkinElmer; 6008289) using an Access Labcyte Workstation with the Labcyte Echo 55×. For the chosen highest assay concentration of 100 μM, 150 nL of compound solution are transferred from a 10 mM DMSO compound stock solution. A series of eleven fivefold dilutions per compound are transferred to the assay plate, compound dilutions are tested in duplicates. DMSO are added as backfill to a total volume of 150 nL.
The assays run on a fully automated robotic system in a darkened room below 100 Lux. To 150 nl of compound dilution 10 μl of a mix including KRAS mutant protein, SOS1 (final assay concentrations see above) and GDP nucleotide (Sigma G7127; final assay concentration 10 μM) in assay buffer (1×PBS, 0.1% BSA, 0.05% Tween 20) are added into columns 1-24.
After 30 minutes incubation time 5 μl of Alpha Screen bead mix in assay buffer are added into columns 1-23. Bead mix consists of AlphaLISA Glutathione Acceptor Beads (PerkinElmer, Cat No AL109) and AlphaScreen Streptavidin Donor Beads (PerkinElmer Cat No 6760002) in assay buffer at a final assay concentration of 10 μg/ml each.
Plates are kept at room temperature in a darkened incubator. After an additional 60 minutes incubation time the signal is measured in a PerkinElmer Envision HTS Multilabel Reader using the AlphaScreen specs from PerkinElmer.
Each plate contains up to 16 wells of a negative control depending on the dilution procedure (platewise or serial) (DMSO instead of test compound; with KRAS mutant::SOS1 GDP mix and bead mix; column 23) and 16 wells of a positive control (DMSO instead of test compound; with KRAS mutant::SOS1 GDP mix w/o bead mix; column 24).
As internal control known inhibitors of KRAS mutant::SOS1 interaction can be measured on each compound plate. […]

A further experiment has as its target KRAS (WT)::SOS1 (Homo sapiens (Human), UniProt P01116, C118S). Nature of the experiment: KRAS::SOS1 AlphaScreen binding assay, KRAS WT. In a few lines: as §1
In general terms: Alpha assays give light when donor and acceptor beads are brought close together.

In the next experiment the test system is GP2D cells. Nature of the experiment: GP2D proliferation assay (120 h) (colorectal cancer, G12D). In kind it is cell-based. The procedure, abridged:
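500 cells/well in DMEM + GlutaMAX + 10% FCS, exposed to a logarithmic compound dose series (DMSO-normalized) for 120 h. Viability read by CellTiter-Glo luminescence as percent of DMSO control, with an untreated T0 read at dosing; IC50 from four-parameter non-linear regression.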

For a further experiment, the system named is A375 cells. Nature of the experiment: A375 CTG proliferation assay (120 h) (melanoma, wt, B-Raf mutant, negative control). The note with it: Homo sapiens, A-375, CTG 120 h. The experiment is classed as cell-based. As for the experimental part:
A375 CTG Proliferation Assay (120 h) (Melanoma, Wt, B-Raf Mutant, Negative Control)
A375 cells (ATCC CRL-1619) are dispensed into 384-well plates, flat and clear bottom (Greiner, PNr. 781091) at a density of 300 cells per well in 60 μL DMEM (Sigma 06429)+10% Fetal Calf Serum (HyClone, PNr.: SH30084.03) and incubated at 37° C. in a CO2 incubator overnight. The next day, compounds (10 mM stock in DMSO) are added at logarithmic dose series using the HP Digital Dispenser D300 (Tecan), including DMSO controls. Plates are incubated for 120 h, and cell viability is measured using CellTiter-Glo luminescent cell viability reagent (Promega product code G7570). Viability (stated as percent of control) is defined as relative luminescence units RLU of each well divided by the RLU of cells in DMSO controls. IC50 values are determined from viability measurements by non-linear regression using a four-parameter model.

Sequence of KRAS (G13D)::SOS1 (P01116 other isoform, or with tags, fused parts or gaps G13D/C118S): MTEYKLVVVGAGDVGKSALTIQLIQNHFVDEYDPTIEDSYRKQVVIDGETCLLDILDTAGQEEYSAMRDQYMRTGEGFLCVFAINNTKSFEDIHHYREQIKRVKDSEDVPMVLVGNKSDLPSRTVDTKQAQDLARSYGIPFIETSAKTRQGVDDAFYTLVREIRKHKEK
Sequence of KRAS (WT)::SOS1 (P01116 other isoform, or with tags, fused parts or gaps C118S): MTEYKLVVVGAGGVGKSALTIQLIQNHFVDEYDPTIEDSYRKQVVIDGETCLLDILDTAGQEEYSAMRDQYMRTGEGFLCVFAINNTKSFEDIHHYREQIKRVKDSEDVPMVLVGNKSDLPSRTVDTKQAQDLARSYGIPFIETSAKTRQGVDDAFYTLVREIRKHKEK

A word on the IC50: it is the concentration at which inhibition is half-maximal. A low value points to greater potency in that assay. Regarding `C[C@H](Oc1cc(N2CCNC3(COC3)C2)nc(-c2onc3c2CCC[C@@]32CCCc3sc(N)c(C#N)c32)n1)[C@@H]1CCCN1C` [I-4], the IC50 on KRAS (G12V)::SOS1 was found to be 8 nM; at KRAS (G13D)::SOS1, 20 nM; on KRAS (WT)::SOS1 it was 3 nM; with GP2D cells, 1 nM.

As for `C[C@H](Oc1cc([C@@H]2CCOC2)nc(-c2onc3c2CCC[C@@]32CCCc3sc(N)c(C#N)c32)n1)[C@@H]1CCCN1C` [I-22], the IC50 on KRAS (WT)::SOS1 was 3 nM; in the experiment on GP2D cells, 27 nM; with A375 cells, over 3000 nM.

Take `C[C@H](Oc1cc(N2CCN(C)C3(CC3)C2)nc(-c2onc3c2CCC[C@@]32CCCc3sc(N)c(C#N)c32)n1)[C@@H]1C[C@@H](F)CN1C` [I-39]: the figures for the IC50 on KRAS (G13D)::SOS1, at KRAS (WT)::SOS1 and in the experiment on GP2D cells were 146 nM, 11 nM and 17 nM, respectively.

For the molecule `C[C@H](Oc1cc(N2CCN(C)C3(COC3)C2)nc(-c2noc3c2CCC[C@@]32CCCc3sc(N)c(C#N)c32)n1)[C@@H]1CCCN1C` [II-13], the IC50 on KRAS (G12V)::SOS1 is 3 nM; at KRAS (G13D)::SOS1, 8 nM; on KRAS (WT)::SOS1, 3 nM; in the experiment with GP2D cells, 9 nM.

With `C[C@H](Oc1cc(N2CC[C@H](N(C)C)C2)nc(-c2noc3c2CCC[C@@]32CCCc3sc(N)c(C#N)c32)n1)[C@@H]1C[C@@H](F)CN1C` [II-15], the IC50 on KRAS (G12V)::SOS1 came out at 39 nM; on KRAS (G13D)::SOS1 it was 71 nM; at KRAS (WT)::SOS1, 11 nM; in the experiment with GP2D cells, 9 nM.

For `C[C@H](Oc1cc(-n2ccc(C(=O)N3CCCC3)n2)nc(-c2noc3c2CCC[C@@]32CCCc3sc(N)c(C#N)c32)n1)[C@@H]1CCCN1C` [II-19], the half-inhibitory concentration (IC50) on KRAS (G13D)::SOS1 turned out to be 9 nM; with GP2D cells, 136 nM; in the experiment with A375 cells, 1120 nM.

Regarding `CNC(=O)c1ccn(-c2cc(O[C@@H](C)[C@@H]3CCCN3C)nc(-c3noc4c3CCC[C@@]43CCCc4sc(N)c(C#N)c43)n2)n1` [II-20], the IC50 at KRAS (G12V)::SOS1 was 2 nM; on KRAS (WT)::SOS1 it was 4 nM; with GP2D cells, 57 nM; in the experiment with A375 cells, over 3000 nM.

Consider `C[C@H](Oc1cc(-n2ccc(C(N)=O)n2)nc(-c2noc3c2CCC[C@@]32CCCc3sc(N)c(C#N)c32)n1)[C@@H]1CCCN1C` [II-21], for which the IC50 on KRAS (G12V)::SOS1 is 1 nM; at KRAS (G13D)::SOS1, 12 nM; on KRAS (WT)::SOS1, 3 nM; in the experiment with GP2D cells it was 57 nM; in the experiment with A375 cells, over 3000 nM.

`C[C@H](Oc1cc(-n2ccc(C(=O)NC3COC3)n2)nc(-c2noc3c2CCC[C@@]32CCCc3sc(N)c(C#N)c32)n1)[C@@H]1CCCN1C` [II-25]: the results for the IC50 at KRAS (G12V)::SOS1, at KRAS (G13D)::SOS1 and at KRAS (WT)::SOS1 were 7 nM, 11 nM and 16 nM, respectively.

In the case of `C[C@H](Oc1cc(-n2ccc(C(=O)NC3(C)COC3)n2)nc(-c2noc3c2CCC[C@@]32CCCc3sc(N)c(C#N)c32)n1)[C@@H]1CCCN1C` [II-26], the IC50 at KRAS (G12V)::SOS1 was determined as 2 nM; on KRAS (G13D)::SOS1, 8 nM; on KRAS (WT)::SOS1, 3 nM.

Take `C[C@H](Oc1cc(-c2ccn(C)n2)nc(-c2noc3c2CCC[C@@]32CCCc3sc(N)c(C#N)c32)n1)[C@@H]1C[C@@H](F)CN1C` [II-27]: the IC50 in the experiment on GP2D cells was 408 nM; with A375 cells, over 3000 nM.

With `C[C@H](Oc1cc(N2CCNC3(COC3)C2)nc(-c2noc3c2CCC[C@@]32CCCc3sc(N)c(C#N)c32)n1)[C@@H]1CCCN1C` [II-31], the IC50 came out at 8 nM on KRAS (G13D)::SOS1 and 1 nM with GP2D cells.

With `C[C@H](Oc1cc(N2CC3CCC(C2)N3)nc(-c2noc3c2CCC[C@@]32CCCc3sc(N)c(C#N)c32)n1)[C@@H]1CCCN1C` [II-34], the IC50 at KRAS (G12V)::SOS1 was found to be 17 nM; at KRAS (G13D)::SOS1, 38 nM; at KRAS (WT)::SOS1 it was 8 nM; with GP2D cells, 49 nM.

The record behind these values is patent US20240174690A1, “ANNULATED 2-AMINO-3-CYANO THIOPHENES AND DERIVATIVES FOR THE TREATMENT OF CANCER” (BOEHRINGER INGELHEIM INTERNATIONAL GMBH, priority 2021, published 2024).
